The METLIN SMRT retention time set (Domingo-Almenara et al. 2019)

Test: gradient 5% acetonitrile 3 min, to 50% in 2 min, to 85% in 15 min, held 3 min, 100 µL/min
Details: column: Zorbax Extend-C18 2.1 x 50 mm; eluents: water / acetonitrile, 0.1% formic acid
Summary of the method: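 The system's dead and dwell volumes were 40 μL and 900 μL, with a Zorbax Extend-C18 column (2.1 × 50 mm, 1.8 μm) run at 100 μL/min in water and acetonitrile containing 0.1% formic acid each. Pure standards were analyzed in mixtures of ~100 molecules by HPLC–quadrupole time-of-flight mass spectrometry in positive and negative ionization mode. Retention time was assigned from computationally picked, manually inspected adduct peaks.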

Compound	RP-LC retention time [s]
CCCC(=O)Nc1ccc(S(=O)(=O)NCCn2ncccc2=O)cc1	612
CCS(=O)(=O)Nc1ccc2nc(N3CCN(c4ccc(F)cc4)CC3)cc(C(=O)O)c2c1	653
COCCNS(=O)(=O)c1cccc(-c2nc(-c3ccc(C)cc3)no2)c1	1060
O=C(CN1C[C@H]2C[C@H](C1)[C@H]1CCCC(=O)N1C2)Nc1ccc2c(c1)OCCO2	587
Cc1nc(-c2ccc(-c3noc(COc4ccc(Cl)cc4)n3)cc2)cs1	1280
CCOc1ccc(NC(=O)C2CCN(S(=O)(=O)c3cn(C(C)C)cn3)CC2)cc1	775
Cc1ccc(-c2cn3nc(N4CCCC(C(=O)N5CCOCC5)C4)sc3n2)cc1 (stereo not drawn)	800
Cc1c(C(=O)O)sc2nc(SCC(=O)Nc3ccccc3C(F)(F)F)[nH]c(=O)c12	669
CCN1CCN(c2c(S(=O)(=O)c3ccc(C)c(C)c3)cnc3ccc(OC)cc23)CC1	679
COc1ccc(S(=O)(=O)c2cnc3cc4c(cc3c2N2CCN(C)CC2)OCCO4)cc1	608
O=C(NC(c1ccccc1)c1nnc(-c2ccccc2)o1)c1ccco1 (stereo not drawn)	876
COc1ccc(N2CCN(C(c3cccs3)C(C)NC(=O)C(=O)N3CCCC3)CC2)cc1 (stereo not drawn)	670
Nc1cc(C2CCN(S(=O)(=O)c3cccc(F)c3)CC2)no1	755
Cc1ccnc(N2CCC(C(=O)NCCc3ccco3)CC2)n1	640
CCC1CN(C(=O)N2CCC(C(=O)NCCN3CCCC3)CC2)c2cc(C)ccc2O1 (stereo not drawn)	649
O=C(c1ccc(N2C[C@H]3C[C@H](C2)[C@H]2CCCC(=O)N2C3)nc1)N1CCC2(CC1)OCCO2	584
Cc1nc(N2CCN(c3ccccn3)CC2)c2c(C)c(C(=O)Nc3cccc(Cl)c3C)sc2n1	752
CC(C)n1c(=O)c(NCCCc2ccccc2)nc2ccncc21	707
O=C(Cc1cn(Cc2ccc(Cl)cc2)c2ccccc12)NC1CC1	884
O=C(Cc1ccc(F)cc1)NC1CCN(c2ccccc2)C1=O (stereo not drawn)	770
CC(C)Oc1ccc(CNC(=O)CCCN2C(=O)CCn3nc(-c4cccn4C)cc32)cc1	833
CN1CCC(N2CCN(S(=O)(=O)c3cc(-c4nc(C(C)(C)C)cs4)cs3)CC2)CC1	660
Cc1ccc(CNC(=O)Cn2cnc3c(sc4nc(-c5ccccc5)ccc43)c2=O)cc1	880
CCc1ccccc1NC(=O)N1C[C@@H](F)C[C@H]1C(=O)N1CCc2ccccc2C1	811
COc1ccc(-c2cn3c(CC(=O)NC4CCCCC4)csc3n2)cc1OC	702
CCOc1ccc(S(=O)(=O)[C@H]2CS(=O)(=O)C[C@@H]2N2CCC(C(=O)OC)CC2)cc1	858

Compound	RP-LC retention time [s]
O=C(NCC1CC1)C1(CCO)CCN(Cc2ccccc2)C1 (stereo not drawn)	581
CCn1nccc1-c1cccc(-c2noc(-c3cc(OC)cc(OC)c3)n2)c1	1240
Cn1c(=O)oc2cc(-c3noc(-c4cc(F)ccc4F)n3)ccc21	1010
Cc1oc(-c2[nH]ncc2C(=O)N(C)C)cc1S(=O)(=O)Nc1cccc(F)c1	668
CC(C)Cc1ccc(S(=O)(=O)NC2CCCN(c3ccc(=O)n(CC4CC4)n3)C2)cc1 (stereo not drawn)	1050
COc1cccc(NC(=O)CN2CCC(c3nc(-c4cccs4)no3)CC2)c1	680
Cc1nc2nc(-c3ccco3)nn2c(N2CCN(c3ccccn3)CC2)c1C	596
CCC(=O)N1CCc2cc(C)c(S(=O)(=O)NC3CC3)cc21	767
O=C(NCCc1csc(-c2cccc(F)c2)n1)c1cccs1	905
CCCn1cc(S(=O)(=O)NCc2ccccc2F)c2cccnc21	861
Cc1nc(Nc2ccc(Br)cn2)sc1C(=O)N1CCC(C(N)=O)CC1	642
Cc1nc(Nc2ccc(Br)cn2)sc1C(=O)NCCN1CCCC1	628
COCCn1c(C2CCN(C(=O)Cc3ccc(Cl)cc3)C2)nc2ccncc21 (stereo not drawn)	570
CN1CCN(c2ccc([N+](=O)[O-])c3no[n+]([O-])c23)CC1	631
O=C(NCCc1cccs1)C1CCCN(C(=O)c2cc(-c3ccccn3)n[nH]2)C1 (stereo not drawn)	645
COc1cc(Cl)ccc1-c1nc(-c2ccc3c(c2)oc(=O)n3C(C)C)no1	1220
CCOC(=O)CNC(=O)N1CCCC1c1ccc(C)cc1 (stereo not drawn)	801
Cc1csc(NC(=O)CSc2ccc(-c3cccnc3)nn2)n1	589
Cc1ccc(C2NC(=O)N(CC(=O)Nc3ccccc3F)C3=C2C(=O)OC3)cc1 (stereo not drawn)	786
CS(=O)(=O)N1CCC(OC2CCN(C(=O)c3ccccc3)CC2)CC1	709
CCc1nccn1Cc1nc(-c2ccc(C)cc2)no1	646
Cc1ccsc1-c1nnc(CC(=O)N2CCN(C3CCCCC3)CC2)o1	616
COc1c(C(=O)NCCN2CCCCC2C)sc2cc(Cl)ccc12 (stereo not drawn)	710
CC(=O)N1CCc2cc(CNC(=O)c3ccnn3C)ccc21	622
COc1ccc(C2(C(=O)N3CCCCCCN(C)C(=O)[C@@H]4CCC[C@@H]43)CC2)cc1	922
COc1ccc(-c2cc3nn(CC(=O)Nc4ccc(F)cc4Cl)c(=O)n3c(C)n2)cc1	970

The next lines start with the values.

RP-LC retention time [s]	Compound
673	Cc1c(CC(=O)NC(C)C)c(=O)n2nc(-c3ccccc3)nc2n1C
870	O=C(NC1CC1)c1ccc(OCC2CCN(C(=O)c3ccc(F)c(Cl)c3)CC2)cc1
579	O=C(C1CCCO1)N1CCN(c2nc(CN3CCCCC3)cs2)CC1 (stereo not drawn)
666	CC1(C)CC(=O)C(CC(=O)c2ccccc2)=C(NN=C(N)N)C1
824	Cc1nc(-c2noc(-c3ccc(F)cc3)n2)cn1CC(=O)NCc1ccccc1F
625	CC(C)(C)NC(=O)N1CCC(OC2CCN(Cc3ccccc3)CC2)CC1
538	Cc1noc([C@@H]2CN(C(=O)c3ccc(Cn4ccnc4)o3)C[C@H]2C(N)=O)n1
681	O=C(C1CCN(S(=O)(=O)N2CCOCC2)CC1)N1CCC(Cc2nc(C3CCOCC3)no2)CC1
941	Cc1ccccc1Nc1c(-c2ccccn2)nc2cnccn12
992	CCc1nc2cc(N3CCC(C(=O)Nc4cc(C)ccc4OC)CC3)cnc2nc1CC
725	COCCNC(=O)C1CCN(C2=NS(=O)(=O)C(c3ccc(Cl)cc3)=C2C)CC1
663	N#Cc1c(NC(=O)C2Cc3ccccc3C(=O)O2)sc2c1CCCC2 (stereo not drawn)
704	COc1ccc(OC)c(NC(=O)Cn2cccc2-c2nnc(C3CC3)o2)c1
938	O=c1n(Cc2cccc(F)c2)nc2c(S(=O)(=O)N3CCc4ccccc4C3)cccn12
682	CCOC(=O)C1CCN(C(=O)COc2ccc(NC(=O)C3CC3)cn2)CC1
668	CC(C)Cn1c(=O)c(N2CCN(C(=O)NCc3ccc(F)cc3)CC2)nc2ccncc21
759	O=C(NC1CCCC1)c1nc(C(=O)N2CCN(c3ncccn3)CC2)cs1
670	O=C(CN1CCC2(CC1)N=C(c1ccc(Cl)cc1)C(=O)N2)Nc1ccc2c(c1)OCCO2

RP-LC retention time [s]	Compound
603	O=C(NCCN1CCCC1)C1CCN(c2nc(-c3ccc(Cl)cc3)no2)CC1
587	Cc1ncoc1C(=O)N1CCC(N2CC(OCC3CC3)C23CCOCC3)CC1 (stereo not drawn)
686	COc1ccc(Cl)cc1S(=O)(=O)NCC1CCN(C(=O)c2ccccc2F)CC1
638	Cc1cc2c(cc1S(=O)(=O)N1CCCC1C(=O)N1CCOCC1)OC(C)C(=O)N2 (stereo not drawn)
806	O=C(O)CSc1c(-c2ccccc2)c2cc(Cl)ccc2[nH]c1=O
597	CC(=O)Nc1c(C)nn(-c2ccccc2)c1N1CCC(C(=O)N2CCN(C3CCCCC3)CC2)CC1
683	Cc1csc(NC(=O)Cn2nc3c(cc2=O)CCCC3)n1
808	O=C1NC2(CCN(C(=O)Cc3cccc(F)c3)CC2)Nc2cc(Cl)ccc21
813	Cc1c(Cl)cccc1Nc1c(-c2cccc(O)c2)nc2cnccn12
1020	O=C(Nc1ccccc1Cl)C1CN(S(=O)(=O)C2CC2)CC12CCCCC2 (stereo not drawn)
798	CCc1noc(-c2cnc3nc(C)ccc3c2NC(C)c2ccc(F)cc2)n1 (stereo not drawn)
826	CN1C(=O)c2cc(C(=O)NCCCc3ccccc3)nn2CC1(C)C(=O)NC1CCCC1 (stereo not drawn)
1090	O=C(c1cccc2[nH]ccc12)N1CC(Oc2cccc(-c3nc(-c4ccccc4)no3)c2)C1
865	CCn1cc(-c2nc(CC(=O)NCc3ccc(F)cc3)cs2)c2cccnc21
630	NC(=O)C1CCN(C(=O)CN2c3ccccc3NC3=C(C(=O)CCC3)C2c2cccs2)CC1 (stereo not drawn)
795	Cc1cc(C)cc(C(=O)NC2CCN(c3cc(-c4ccc(F)cc4)[nH]n3)C2)c1 (stereo not drawn)
784	CCN1C(=O)c2cccnc2Sc2cc(CNC(=O)c3ccc(OC)cc3OC)ccc21
1070	CCOC(=O)C1CCCN(c2ncnc3c2cnn3-c2ccccc2)C1 (stereo not drawn)
